Key:
rats = assay: Acute adverse effects (serotonin-associated toxicity) in the behaviour study; format: in vivo
Procedure: In this instance the animals were 9 weeks old at the initiation of drug exposures and we selected just the high (20 mg/kg) dose of 5-MeO-DMT from the molecular study. […] Due to the number of behavioral paradigms to be completed by each animal we divided the study into two cohorts staggered by two weeks with 8 animals coming from each cohort to make up the 16 animals for each treatment group. 23 hours after 5-MeO-DMT administration the animals were introduced to the open field arena where they were allowed to freely explore the area for 5 mins. Following the open field test (OFT) animals were returned to their home cage for 2 hours before beginning either the elevated plus maze (EPM) or pre-pulse inhibition (PPI) testing. 24 hours after completing the OFT animals were returned to the chamber for the first session in novel object (NO1) testing. The animals were returned to their home cage for 2 hours before beginning the EPM or PPI test. 24 hours after NO1 the animals returned to the open field chamber for the second session in novel object (N02) testing. After completing N02 animals were returned to their home cage for 2 hours before they underwent the forced swim test (FST) pre-test. 24 hours later the animals were returned to the FS cylinders for the FST. Upon completion of the FST all animals were euthanized. A timeline of this experimental cohort is described in FIG. 8A.
Within 5-10 mins of administration a series of symptoms emerged that we believed were indicative of acute serotonin-associated toxicity, usually termed “serotonin syndrome” as a result of excessive serotonergic activity (Haberzettl et al. 2013). These symptoms overlap with those induced by acute psychedelic administration including head twitches, tremor, hind limb abduction, Straub tail, head shaking, head weaving and flat/low body posture however in this instance symptoms progressed rapidly to include hyperthermia, tachycardia, trembling and seizures. […] In total 7 of the 16 animals that were administered 20 mg/kg 5-MeO-DMT died or were euthanized for ethical reasons. […] As the study was divided into two cohorts we consulted with the designated vet in BMF as to what amendments should be made to our study protocol to reduce the risk of harm to animals in cohort 2 and a number of changes were implemented to the study design as outlined below.
The experiment was conducted as described for cohort 1 for the first 13 days of injections. There are a number of notable differences in experimental procedures between the two cohorts of animals to be highlighted. […] Finally, the dose of 5-MeO-DMT was reduced to 10 mg/kg. The order and timing of all the behavioral paradigms were kept constant between the cohorts. A timeline of this experimental cohort is described in FIG. 8B. Additionally, 5-MeO-DMT administrations were staggered so animals could be observed for the duration of acute drug effects and to ensure recovery prior to the next animal being injected. The typical symptoms of psychedelic drug administration outlined above were reproduced in all animals administered 5-MeO-DMT.

FosB = assay: Western blot of FosB in brain regions, chronic cocaine ± 5-MeO-DMT; format: in vivo, Male Wistar rats
From the text: Male Wistar rats aged 7 weeks were acclimatized to the facility for 1 week prior to the beginning of the study. […] Animals were euthanized 23- or 119-hours following vehicle or 5-MeO-DMT administration.
Following euthanasia brain regions of interest were isolated. Briefly, the olfactory bulbs were removed before the brain was placed in a rat brain matrix (FIG. 2A). Sterile blades were inserted at positions 2 and 3 (FIG. 2B) to extract a coronal slice containing the Bregma+˜0.2-+˜2.2 coordinates (FIG. 2C). From this tissue slice a blunted 12 G needle was used to punch dissect the NAc and dorsal striatum (DS) (FIG. 2D-2E) identified using the rat brain atlas (Panxinos and Watson 2nd edition). The PFC, hippocampus (Hip) and amygdala (Amyg) were then blunt dissected (FIG. 3A-3D). All regions were frozen in liquid nitrogen and stored at −80° C. until processed.
These treatment groups were used for the molecular assessment of addiction-linked markers.
Determination of protein concentration—a bicinchoninic acid assay (BCA, ThermoFisher) was conducted to determine the total protein concentration in tissue lysates following manufacturer's instructions. Briefly, bovine serum albumin (BSA) standards were prepared in a serial dilution (0-2.0 mg protein/ml) and 200 μl working reagent (50:1, reagent A: reagent B) was added to each of the standards and samples in a 96 well plate (Greiner). For tissue lysates a 1:10 dilution was performed with cell lysis buffer to ensure absorbance values lay within the working range established by the standards. All samples and standards were added in duplicate. The plate was covered and incubated for 30 mins at 37° C. before absorbance was read at 562 nm on a plate reader (SpectraMax M3). The absorbance values were used to form a standard curve of known protein concentrations and protein concentration of samples were derived using the equation of the line. All samples were standardized to the lowest protein concentration using distilled H20 (dH2O).
SDS-PAGE and Western Blotting—Following equalisation of protein concentrations, 6× sample loading buffer (15% SDS, 15% […], 50% glycerol, 0.01% bromophenol blue, […]) was added to each sample using a dilution factor of 1:5 of the total volumes before boiling at 100° C. for 5 mins. Samples were stored at −20° C. until use. One dimensional sodium-dodecyl-sulphate polyacrylamide gel electrophoresis (SDS-PAGE) was used for protein separation based on molecular weight. The percentage of acrylamide in the resolving or stacking gel was determined by the molecular weight of the protein of interest. In this instance all gels consisted of a 5% stacking gel and a 10% resolving gel with the exception of mGluR5, G9a (8%) and H3K9Me2 (12%). 20 μg of protein was loaded and resolved using SDS-PAGE. Gel electrophoresis was conducted at 80V while the protein was in the stacking gel, once it migrated to the resolving gel the voltage was increased to 120V and ran for 90 mins. Samples were transferred to a 0.45 μm polyvinylidene difluoride (PVDF) membrane (Analab) for 1 hour at 100V and blocked in 5% milk blocking solution made in tris-buffered saline containing tween®-20 (TBS-T, Sigma) for 90 mins. Primary antibodies (FIG. 5) were diluted in 5% BSA in TBS-T and incubated with membranes overnight at 4° C. or for 2 hours at room temperature. After incubation with primary antibodies the membranes were washed in TBS-T for 4×10 minutes before incubation with 1:2000 anti-rabbit and 1:2000 anti-mouse Alexa Fluro® conjugated secondary antibodies (Invitrogen) in 2% milk for 1 hour at room temperature. Membranes were washed in TBS-T for 4×10 minutes and in TBS for 1×10-minute wash. Proteins were visualized using Odyssey® infrared imaging system. Protein expression was quantified using Image Studio Lite (Version 5.2) and expression intensities were normalized to a house keeping protein, α-Tubulin or β-actin.

H3K9Me2 = settings: repeated cocaine; cited from earlier work

With COc1ccc2[nH]cc(CCN(C)C)c2c1 [5-MeO-DMT, 5-methoxy-N,N-dimethyltryptamine] the “time to emergence of symptoms indicative of acute serotonin-associated toxicity” value (rats; cohort 1 (20 mg/kg 5-MeO-DMT)) was 5 to 10 min, the “adverse effects after administration” value (rats; cohort 1, 20 mg/kg 5-MeO-DMT, 1 h after last saline or cocaine) was “strong adverse effects in a significant proportion of animals” and the “animals that died or were euthanized for ethical reasons” value (rats; cohort 1, all animals administered 20 mg/kg 5-MeO-DMT) was 7 of the 16. The “animals that died or were euthanized” value (rats; cohort 1, cocaine+5-MeO-DMT (20 mg/kg) group) was 5 animals, the “animals that died or were euthanized” value (rats; cohort 1, saline+5-MeO-DMT (20 mg/kg) group) was 2 animals and the “animals euthanized for early signs of serotonin-associated toxicity” value (rats; cohort 2, saline+5-MeO-DMT (10 mg/kg) group) was 2 animals. The FosB expression (FosB; PFC, 24 h and 120 h, any of the treatments) was “unchanged by any of the treatments”, the FosB expression (FosB; amygdala, 24 h, any treatment) was “no change in FosB levels” and the FosB expression (FosB; amygdala, 120 h, cocaine x 5-MeO-DMT interaction p=0.0353) was “no post hoc differences between treatment groups”. The FosB expression (FosB; dorsal striatum, 24 h, 5-MeO-DMT alone) was “does not regulate the expression”, the FosB expression (FosB; dorsal striatum, 120 h, irrespective of the treatment group) was “no change in expression levels” and the FosB expression (FosB; nucleus accumbens, 24 h, cocaine+10 mg/kg 5-MeO-DMT (1 h post last cocaine)) was “increase FosB expression”. For the same molecule, the FosB expression (FosB; nucleus accumbens, 24 h, cocaine+20 mg/kg 5-MeO-DMT (1 h post last cocaine)) was “no significant difference in FosB expression levels relative to the saline+vehicle control group”, the FosB expression (FosB; nucleus accumbens, 24 h, saline+10 mg/kg 5-MeO-DMT single dose) was “not 10 mg/kg increasing expression” and the FosB expression (FosB; nucleus accumbens, 24 h, saline+20 mg/kg 5-MeO-DMT single dose) was “increasing expression”. The FosB expression (FosB; nucleus accumbens, 120 h, 5-MeO-DMT alone) was “does not persist to 120 hours”.
In the case of COC(=O)[C@H]1[C@@H](OC(=O)c2ccccc2)C[C@@H]2CC[C@H]1N2C.Cl [cocaine, cocaine hydrochloride, reference compound], the “decrease in H3K9Me2 expression” value (H3K9Me2) is listed as 15%.
